Laboratory results from patent US20230374038A1, “MODULATORS OF CYSTIC FIBROSIS TRANSMEMBRANE CONDUCTANCE REGULATOR” (VERTEX PHARMACEUTICALS INCORPORATED, priority 2020, published 2023).

Target: T1, CFTR (Homo sapiens, UniProt P13569, DEL508-508)
T1 construct: endogenous in cells; host or cells: primary human bronchial epithelial cells, F508del/MF genotype
Test: HBE Assay: Ussing chamber assay of CFTR-mediated short-circuit currents in F508del/MF-HBE cells with 1 μM Ivacaftor
Format: cell-based
Details: with 1 μM Ivacaftor, 20% human serum; for EC50 / HBE Max Activity: 18-24 hours; for HBE Activity at 10 μM: single fixed concentration of 10 μM
Description: Ussing chamber experiments were performed using human bronchial epithelial (HBE) cells derived from CF subjects heterozygous for F508del and a minimal function CFTR mutation (F508del/MF-HBE) and cultured as previously described (Neuberger T, Burton B, Clark H, Van Goor F Methods Mol Biol 2011:741:39-54). After four days the apical media was removed, and the cells were grown at an air liquid interface for >14 days prior to use.
(§1) To isolate the CFTR-mediated short-circuit (ISC) current, F508del/MF-HBE grown on Costar® Snapwell™ cell culture inserts were mounted in an Ussing chamber and the transepithelial ISC was measured under voltage-clamp recording conditions (Vhold=0 mV) at 37° C. The basolateral solution contained (in mM) 145 NaCl, 0.83 K2HIPO4, 3.3 KH2PO4, 1.2 MgCl2, 1.2 CaCl2), 10 Glucose, 10 HEPES (pH adjusted to 7.4 with NaOH) and the apical solution contained (in mM) 145 NaGluconate, 1.2 MgCl2, 1.2 CaCl2), 10 glucose, 10 HEPES (pH adjusted to 7.4 with NaOH) and 30 μM amiloride to block the epithelial sodium channel. Forskolin (20 μM) was added to the apical surface to activate CFTR, followed by apical addition of a CFTR inhibitor cocktail consisting of BPO, GlyH-101, and CFTR inhibitor 172 (each at 20 μM final assay concentration) to specifically isolate CFTR currents. The CFTR-mediated ISC (μA/cm^2) for each condition was determined from the peak forskolin response to the steady-state current following inhibition.
The activity of the CFTR corrector compounds on the CFTR-mediated ISC was determined in Ussing chamber studies as described above. The F508del/MF-HBE cell cultures were either incubated with the corrector compounds at a range of concentrations in combination with 1 μM Ivacaftor or were incubated with the corrector compounds at a single fixed concentration of 10 μM in combination with 1 μM Ivacaftor for 18-24 hours at 37° C. and in the presence of 20% human serum. The concentration of corrector compounds with 1 μM Ivacaftor during the 18-24 hours incubations was kept constant throughout the Ussing chamber measurement of the CFTR-mediated ISC to ensure compounds were present throughout the entire experiment.
as §1, with “K2HPO4,” for “K2HIPO4,”

T1 sequence (P13569 with tags, fused parts or gaps DEL508-508): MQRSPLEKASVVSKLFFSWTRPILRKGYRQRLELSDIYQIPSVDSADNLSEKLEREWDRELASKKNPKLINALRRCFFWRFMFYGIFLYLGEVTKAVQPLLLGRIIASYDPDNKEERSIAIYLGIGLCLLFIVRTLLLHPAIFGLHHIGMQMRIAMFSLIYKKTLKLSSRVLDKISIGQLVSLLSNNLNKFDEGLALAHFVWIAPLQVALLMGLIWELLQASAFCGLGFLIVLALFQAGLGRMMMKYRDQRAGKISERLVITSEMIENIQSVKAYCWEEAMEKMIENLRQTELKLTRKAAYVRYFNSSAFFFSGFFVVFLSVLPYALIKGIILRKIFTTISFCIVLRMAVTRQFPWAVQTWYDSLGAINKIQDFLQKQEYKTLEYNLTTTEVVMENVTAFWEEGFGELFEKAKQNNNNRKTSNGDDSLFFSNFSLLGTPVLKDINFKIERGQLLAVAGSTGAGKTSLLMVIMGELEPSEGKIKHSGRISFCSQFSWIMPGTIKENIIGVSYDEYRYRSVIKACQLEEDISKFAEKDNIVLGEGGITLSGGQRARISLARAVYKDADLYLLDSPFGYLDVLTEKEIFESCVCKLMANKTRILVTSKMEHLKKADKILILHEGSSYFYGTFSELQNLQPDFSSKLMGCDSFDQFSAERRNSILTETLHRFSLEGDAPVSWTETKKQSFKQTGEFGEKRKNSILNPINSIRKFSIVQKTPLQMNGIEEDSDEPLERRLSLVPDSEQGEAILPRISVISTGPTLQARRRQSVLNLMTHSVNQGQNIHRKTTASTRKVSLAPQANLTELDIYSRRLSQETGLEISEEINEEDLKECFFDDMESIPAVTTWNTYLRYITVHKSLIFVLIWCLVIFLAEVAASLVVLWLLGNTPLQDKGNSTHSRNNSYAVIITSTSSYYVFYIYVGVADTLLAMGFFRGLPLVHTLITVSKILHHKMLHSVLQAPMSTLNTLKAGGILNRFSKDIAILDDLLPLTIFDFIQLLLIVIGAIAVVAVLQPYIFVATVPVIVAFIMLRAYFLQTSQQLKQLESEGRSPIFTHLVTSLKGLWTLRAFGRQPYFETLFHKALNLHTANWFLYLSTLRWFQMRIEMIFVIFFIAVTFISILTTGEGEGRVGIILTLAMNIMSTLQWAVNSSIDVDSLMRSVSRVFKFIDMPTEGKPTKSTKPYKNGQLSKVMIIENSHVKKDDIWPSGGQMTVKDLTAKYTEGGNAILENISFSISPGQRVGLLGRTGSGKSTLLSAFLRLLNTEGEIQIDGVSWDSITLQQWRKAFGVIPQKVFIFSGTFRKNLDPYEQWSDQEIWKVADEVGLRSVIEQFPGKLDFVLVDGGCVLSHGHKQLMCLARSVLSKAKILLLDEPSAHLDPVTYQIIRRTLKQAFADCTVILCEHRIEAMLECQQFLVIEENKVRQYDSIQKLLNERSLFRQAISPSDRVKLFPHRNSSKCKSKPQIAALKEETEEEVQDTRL

Structure (SMILES)	EC50 [nM]	HBE Max Activity	HBE Activity at 10 μM
Cc1cccc(CC2CCCCC2)c1-c1nc2nc(c1C)OC[C@@H](CC(C)(C)C)N(Cc1cccc(N(C)C(C)C)n1)C(=O)c1cccc(c1)S(=O)(=O)N2 (atropisomer, axis not shown) [Compound 255]	< 1000	+++ (+++ is >600%)	–
Cc1cccc(CC2CCCCC2)c1-c1nc2nc(c1C)OC[C@@H](CC(C)(C)C)N(Cc1cccc(N(C(C)C)C(C)C)n1)C(=O)c1cccc(c1)S(=O)(=O)N2 (atropisomer, axis not shown) [Compound 256]	< 1000	+++ (+++ is >600%)	–
Cc1ccnc(CN2C(=O)c3cccc(c3)S(=O)(=O)Nc3nc(c(C)c(-c4c(C)cccc4CC4CCCCC4)n3)OC[C@H]2CC(C)(C)C)n1 (atropisomer, axis not shown) [Compound 258]	< 1000	+++ (+++ is >600%)	–
Cc1cccc(CC2CCCCC2)c1-c1nc2nc(c1C)OC[C@@H](CC(C)(C)C)N(Cc1cccc(N(C)CC(C)(C)C)n1)C(=O)c1cccc(c1)S(=O)(=O)N2 (atropisomer, axis not shown) [Compound 259]	< 1000	+++ (+++ is >600%)	–
Cc1cccc(CC2CCCCC2)c1-c1nc2nc(c1C)OC[C@@H](CC(C)(C)C)N(Cc1ncc(N3CCC(C)(C)CC3)cn1)C(=O)c1cccc(c1)S(=O)(=O)N2 (atropisomer, axis not shown) [Compound 260]	< 1000	+++ (+++ is >600%)	–
Cc1cccc(CC2CCCCC2)c1-c1nc2nc(c1C)OC[C@@H](CC(C)(C)C)N(Cc1nccc(N(C)C)n1)C(=O)c1cccc(c1)S(=O)(=O)N2 (atropisomer, axis not shown) [Compound 261]	< 1000	+++ (+++ is >600%)	–
Cc1cccc(CC2CCCCC2)c1-c1nc2nc(c1C)OC[C@@H](CC(C)(C)C)N(Cc1nccc(N(C)C(C)C)n1)C(=O)c1cccc(c1)S(=O)(=O)N2 (atropisomer, axis not shown) [Compound 262]	< 1000	+++ (+++ is >600%)	–
Cc1cccc(CC2CCCCC2)c1-c1nc2nc(c1C)OC[C@@H](CC(C)(C)C)N(Cc1nccc(N3CCOCC3)n1)C(=O)c1cccc(c1)S(=O)(=O)N2 (atropisomer, axis not shown) [Compound 263]	< 1000	+++ (+++ is >600%)	–
Cc1cccc(CC(C)C)c1-c1nc2nc(c1C)OC[C@@H](CC(C)(C)C)N(Cc1ncc(CC(C)C)cn1)C(=O)c1cccc(c1)S(=O)(=O)N2 (atropisomer, axis not shown) [Compound 264]	< 1000	+++ (+++ is >600%)	–
Cc1cccc(CC2CCCC2)c1-c1nc2nc(c1C)OC[C@@H](CC(C)(C)C)N(Cc1nccc(N(C)C(C)C)n1)C(=O)c1cccc(c1)S(=O)(=O)N2 (atropisomer, axis not shown) [Compound 265]	–	–	+++ (+++ is >600%)
Cc1cccc(CC2CCCC2)c1-c1nc2nc(c1C)OC[C@@H](CC(C)(C)C)N(Cc1ncc(OC(C)C)cn1)C(=O)c1cccc(c1)S(=O)(=O)N2 (atropisomer, axis not shown) [Compound 266]	< 1000	+++ (+++ is >600%)	–
Cc1cccc(CC2CCCC2)c1-c1nc2nc(c1C)OC[C@@H](CC(C)(C)C)N(Cc1ccc(OC(C)C)cn1)C(=O)c1cccc(c1)S(=O)(=O)N2 (atropisomer, axis not shown) [Compound 267]	< 1000	+++ (+++ is >600%)	–
Cc1cccc(CC2CCCC2)c1-c1nc2nc(c1C)OC[C@@H](CC(C)(C)C)N(Cc1ncc(CC(C)C)cn1)C(=O)c1cccc(c1)S(=O)(=O)N2 (atropisomer, axis not shown) [Compound 268]	< 1000	+++ (+++ is >600%)	–
Cc1cccc(CC2CCCC2)c1-c1nc2nc(c1C)OC[C@@H](CC(C)(C)C)N(Cc1cccc(N3CCC[C@H]3C)n1)C(=O)c1cccc(c1)S(=O)(=O)N2 (atropisomer, axis not shown) [Compound 269]	–	–	+++ (+++ is >600%)
Cc1cccc(CC2CCCC2)c1-c1nc2nc(c1C)OC[C@@H](CC(C)(C)C)N(Cc1ncc(N3CCC(C)(C)C3)cn1)C(=O)c1cccc(c1)S(=O)(=O)N2 (atropisomer, axis not shown) [Compound 270]	–	–	+++ (+++ is >600%)
Cc1cccc(CC2CCOCC2)c1-c1nc2nc(c1C)OC[C@@H](CC(C)(C)C)N(Cc1ncc(N3CCC(C)(C)C3)cn1)C(=O)c1cccc(c1)S(=O)(=O)N2 (atropisomer, axis not shown) [Compound 271]	–	–	+++ (+++ is >600%)
Cc1cccc(CC2CCOCC2)c1-c1nc2nc(c1C)OC[C@@H](CC(C)(C)C)N(Cc1ncc(N3CCC(C)(C)C3)cn1)C(=O)c1cccc(c1)S(=O)(=O)N2 (atropisomer, axis not shown) [Compound 272]	–	–	++ (++ is 30-60%)
Cc1cccc(CC2CCCC2)c1-c1nc2nc(c1C)OC[C@@H](CC(C)(C)C)N(Cc1cccc(N(C)C(C)C)n1)C(=O)c1cccc(c1)S(=O)(=O)N2 (atropisomer, axis not shown) [Compound 273]	< 1000	+++ (+++ is >600%)	–
Cc1cccc(CC2CCOCC2)c1-c1nc2nc(c1C)OC[C@@H](CC(C)(C)C)N(Cc1ccc(N3CCOCC3)cn1)C(=O)c1cccc(c1)S(=O)(=O)N2 (atropisomer, axis not shown) [Compound 274]	–	–	++ (++ is 30-60%)
Cc1cccc(CC2CCOCC2)c1-c1nc2nc(c1C)OC[C@@H](CC(C)(C)C)N(Cc1ccc(N3CCOCC3)cn1)C(=O)c1cccc(c1)S(=O)(=O)N2 (atropisomer, axis not shown) [Compound 275]	–	–	+++ (+++ is >600%)
Cc1cccc(CC2CCCCC2)c1-c1nc2nc(c1C)OC[C@@H](CC(C)(C)C)N(Cc1ncc(C3CCCCC3)cn1)C(=O)c1cccc(c1)S(=O)(=O)N2 (atropisomer, axis not shown) [Compound 276]	< 1000	+++ (+++ is >600%)	–
Cc1cccc(CC2CCCCC2)c1-c1nc2nc(c1C)OC[C@@H](CC(C)(C)C)N(Cc1ccc(C3CCCCC3)cn1)C(=O)c1cccc(c1)S(=O)(=O)N2 (atropisomer, axis not shown) [Compound 277]	< 1000	+++ (+++ is >600%)	–
Cc1cccc(CC2CCCCC2)c1-c1nc2nc(c1C)OC[C@@H](CC(C)(C)C)N(Cc1ccc(OC(C)C)cn1)C(=O)c1cccc(c1)S(=O)(=O)N2 (atropisomer, axis not shown) [Compound 279]	1000 to 3000	+++ (+++ is >600%)	–
Cc1cccc(CC2CCCC2)c1-c1nc2nc(c1C)OC[C@@H](CC(C)(C)C)N(Cc1ncc(N3CCOCC3)cn1)C(=O)c1cccc(c1)S(=O)(=O)N2 (atropisomer, axis not shown) [Compound 280]	< 1000	+++ (+++ is >600%)	–
